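Assay format: 96-well plates, 48-hour exposure. The concentration for 50% growth inhibition is given as GI50. TGI denotes the concentration required for complete inhibition of growth.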
Columns and labels:
Test in all cases: inhibition of tumour cell growth, NCI panel, 48 h
[1] = test system: IGROV1 ovarian
[2] = test system: UACC-257 melanoma
[3] = test system: NCI-H460 lung
[4] = test system: CCRF-CEM leukemia
[5] = test system: 786-0 renal
[6] = test system: SNB-19 CNS
[7] = test system: NCI-H226 lung
[8] = test system: NCI-H522 lung
[9] = test system: U251 CNS
[10] = test system: DU-145 prostate

`O=C1/C(=C/c2ccc(Cl)cc2)CCC1CCN1CCOCC1` (centres undefined) was tested, and the TGI [1] was over 100 µM, the TGI [2] was over 100 µM and the TGI [3] was over 100 µM. The TGI [4] was over 100 µM, the TGI [5] was over 100 µM and the TGI [6] was over 100 µM. The TGI [7] was over 100 µM.
Work on `CC(=O)Oc1c2c(c(O)c3ccccc13)C(n1cnc3c(ncn3C3OC(CO)C4OC(C)(C)OC43)c1=N)CCC2` (centres undefined) yielded a TGI [1] of 40.9 µM, a TGI [2] of 21.8 µM and a TGI [3] of 62.4 µM. It also gave a TGI [8] of 19.3 µM, a TGI [4] of 25.3 µM and a TGI [5] of 27.8 µM. The TGI [9] was 33.3 µM, the TGI [6] was 30.3 µM and the TGI [7] was 52.8 µM.
For `CCOc1ccc(NC(=O)C(=O)CC(=O)c2c(C)n([O-])c3ccccc3[n+]2=O)cc1`, the TGI [1] was over 100 µM, the TGI [2] was over 100 µM and the TGI [3] was over 100 µM. It also gave a TGI [8] of over 100 µM, a TGI [4] of over 100 µM and a TGI [5] of over 100 µM. For the same compound, the TGI [9] was over 100 µM, the TGI [6] was over 100 µM and the TGI [7] was over 100 µM.
With `O=c1ccn([C@H]2CSC[C@@H](CO)C2)c(=O)[nH]1` the TGI [1] was over 100 µM, the TGI [2] was over 100 µM and the TGI [3] was over 100 µM. The TGI [8] was over 100 µM, the TGI [4] was over 100 µM and the TGI [5] was over 100 µM. It also gave a TGI [9] of over 100 µM, a TGI [6] of over 100 µM and a TGI [7] of over 100 µM.
With `OCC1OC(c2nc(C3=NCCCN3)cs2)C(O)C1O` (centres undefined) the TGI [1] was over 100 µM, the TGI [2] was over 100 µM and the TGI [3] was over 100 µM. It also gave a TGI [8] of over 100 µM, a TGI [4] of over 100 µM and a TGI [5] of over 100 µM. It also gave a TGI [9] of over 100 µM, a TGI [6] of over 100 µM and a TGI [7] of over 100 µM.
`Cc1[nH]c2ccccc2c1C(=O)/C=C/c1ccccc1O` showed a TGI [1] of over 100 µM, a TGI [2] of over 100 µM and a TGI [3] of over 100 µM. The TGI [8] was over 100 µM, the TGI [4] was over 100 µM and the TGI [5] was over 100 µM. It also gave a TGI [9] of over 100 µM and a TGI [6] of over 100 µM.
`COc1cc(F)ccc1-c1ncnc(Nc2cccc(CS(C)(=N)=O)c2)n1` (centres undefined) was tested, and the GI50 [1] was 0.65 µM, the TGI [1] was over 100 µM and the GI50 [3] was 1.79 µM. It also gave a TGI [3] of over 100 µM, a GI50 [8] of 1.6 µM and a TGI [8] of 6.34 µM. For the same compound, the GI50 [4] was 0.447 µM, the TGI [4] was over 100 µM and the GI50 [5] was 1.18 µM. It also gave a TGI [5] of over 100 µM, a GI50 [9] of 0.779 µM and a TGI [9] of over 100 µM. The GI50 [6] was 1.08 µM, the TGI [6] was over 100 µM and the GI50 [10] was 0.784 µM. The TGI [10] was over 100 µM, the GI50 [7] was 0.497 µM and the TGI [7] was over 100 µM.
Work on `Cn1cc(-c2csc(-c3c[nH]c4ccc(F)cc34)n2)c2cnccc21` yielded a GI50 [1] of 1.59 µM, a TGI [1] of 3.09 µM and a GI50 [2] of 1.96 µM. It also gave a TGI [2] of 3.55 µM, a GI50 [3] of 1.99 µM and a TGI [3] of 3.95 µM. For the same compound, the GI50 [8] was 1.79 µM, the TGI [8] was 3.29 µM and the GI50 [5] was 1.85 µM. The TGI [5] was 3.47 µM, the GI50 [9] was 1.87 µM and the TGI [9] was 3.4 µM. It also gave a GI50 [6] of 1.95 µM, a TGI [6] of 3.52 µM and a GI50 [10] of 1.8 µM. For the same compound, the TGI [10] was 3.28 µM, the GI50 [7] was 1.88 µM and the TGI [7] was 4.03 µM.
`COC1(OC)C(N(C)C)=C(Cl)C(=O)/C1=C/C=O` gave a TGI [1] of over 100 µM, a TGI [2] of over 100 µM and a TGI [3] of over 100 µM. It also gave a TGI [4] of 98.2 µM, a TGI [5] of over 100 µM and a TGI [9] of over 100 µM. The TGI [6] was over 100 µM and the TGI [7] was over 100 µM.
With `O=C(Nc1nc(=S)c2c(ncn2CCOC(=O)c2ccccc2)[nH]1)c1ccccc1` the TGI [1] was over 100 µM, the TGI [2] was over 100 µM and the TGI [3] was over 100 µM. The TGI [8] was 68.1 µM, the TGI [4] was over 100 µM and the TGI [5] was over 100 µM. For the same compound, the TGI [9] was over 100 µM, the TGI [6] was over 100 µM and the TGI [7] was over 100 µM.
For `COc1ccc(CC2NCCc3c2[nH]c2ccccc32)cc1` (centres undefined), the TGI [1] was over 100 µM, the TGI [3] was over 100 µM and the TGI [4] was over 100 µM. For the same compound, the TGI [5] was over 100 µM, the TGI [9] was over 100 µM and the TGI [6] was over 100 µM. For the same compound, the TGI [7] was over 100 µM.
Work on `CC1c2c(Cl)nc3ccccc3c2Oc2c1c(Cl)nc1ccccc21` yielded a TGI [1] of over 100 µM, a TGI [2] of over 100 µM and a TGI [3] of over 100 µM. The TGI [8] was over 100 µM, the TGI [4] was over 100 µM and the TGI [5] was over 100 µM. The TGI [9] was over 100 µM and the TGI [6] was over 100 µM.
`O=C(c1ccccc1Br)C(F)(F)F` was tested, and the TGI [1] was over 100 µM, the TGI [3] was over 100 µM and the TGI [8] was over 100 µM. The TGI [4] was over 100 µM, the TGI [5] was over 100 µM and the TGI [9] was over 100 µM. For the same compound, the TGI [6] was over 100 µM, the TGI [10] was over 100 µM and the TGI [7] was over 100 µM.
`N#CC(C(=O)C(=O)C(C#N)c1ccc(Br)cc1)c1ccc(Br)cc1` (centres undefined) showed a TGI [1] of 30 µM, a TGI [2] of 25.1 µM and a TGI [3] of 30.5 µM. The TGI [4] was over 100 µM, the TGI [5] was 27 µM and the TGI [9] was 23.8 µM. The TGI [6] was 30.7 µM and the TGI [7] was 34.8 µM.
`CCC(C)COC(=O)c1ccc(N=Cc2ccc(C=Nc3ccc(C(=O)OCC(C)CC)cc3)cc2)cc1` (centres undefined) showed a TGI [1] of over 100 µM, a TGI [2] of over 100 µM and a TGI [3] of over 100 µM. For the same compound, the TGI [8] was over 100 µM, the TGI [4] was over 100 µM and the TGI [5] was over 100 µM. It also gave a TGI [9] of over 100 µM, a TGI [6] of over 100 µM and a TGI [7] of over 100 µM.
Compound `Cc1c2c(C#N)nccc2c(C)c2c1c1ccccc1n2Cc1ccccc1` has a TGI [1] of over 100 µM, a TGI [2] of over 100 µM and a TGI [3] of over 100 µM. For the same compound, the TGI [4] was over 100 µM, the TGI [5] was over 100 µM and the TGI [9] was over 100 µM. The TGI [6] was over 100 µM, the TGI [10] was over 100 µM and the TGI [7] was over 100 µM.
With `CC(=O)c1sc(Nc2nnc(-c3ccc(-c4nnc(Nc5nc(C)c(C(C)=O)s5)o4)cc3)o2)nc1C` the TGI [1] was over 100 µM, the TGI [2] was over 100 µM and the TGI [3] was over 100 µM. For the same compound, the TGI [8] was over 10 µM, the TGI [4] was over 100 µM and the TGI [5] was over 100 µM. For the same compound, the TGI [9] was over 100 µM, the TGI [6] was over 100 µM and the TGI [7] was over 100 µM.
Compound `CC1CN(C(=O)CN2CCC(CCCCN(C)C)CC2)c2ccccc2NC1=O` (centres undefined) has a TGI [1] of over 100 µM, a TGI [2] of over 100 µM and a TGI [3] of over 100 µM. It also gave a TGI [4] of over 100 µM, a TGI [5] of over 100 µM and a TGI [9] of over 100 µM. It also gave a TGI [6] of over 100 µM and a TGI [7] of over 100 µM.
`CN=C1CC2c3cc(OC)c(OC)cc3CCN2C2=C1C(=O)CC(C)(C)C2` (centres undefined) showed a TGI [2] of over 100 µM, a TGI [3] of over 100 µM and a TGI [8] of over 100 µM. It also gave a TGI [4] of over 100 µM, a TGI [5] of over 100 µM and a TGI [9] of over 100 µM. It also gave a TGI [6] of over 100 µM and a TGI [7] of over 100 µM.
With `O=C(/C=C/c1cccc2ccccc12)c1ccccc1Cl` the TGI [1] was 31 µM, the TGI [2] was 31.3 µM and the TGI [3] was 29.2 µM. The TGI [8] was 27.5 µM, the TGI [4] was 17.2 µM and the TGI [5] was 27.2 µM. The TGI [9] was 23.7 µM, the TGI [6] was 27 µM and the TGI [7] was over 100 µM.
With `CCCC(=O)Nc1cc2c3c(c1)CCCN3CCC2` the TGI [1] was over 10 µM, the TGI [2] was over 10 µM and the TGI [8] was over 10 µM. The TGI [4] was over 10 µM, the TGI [5] was over 10 µM and the TGI [9] was over 10 µM. For the same compound, the TGI [6] was over 10 µM and the TGI [10] was over 10 µM.
Work on `Nc1c(C(=O)Nc2ccncc2)sc2nc3c(cc12)CCCCCCCC3` yielded a GI50 [1] of 0.933 µM, a TGI [1] of 1.82 µM and a GI50 [2] of 0.948 µM. For the same compound, the TGI [2] was 1.74 µM, the GI50 [3] was 0.995 µM and the TGI [3] was 1.83 µM. It also gave a GI50 [4] of 1.3 µM, a TGI [4] of 3.26 µM and a GI50 [5] of 0.93 µM. It also gave a TGI [5] of 1.66 µM, a GI50 [9] of 0.933 µM and a TGI [9] of 1.73 µM. The GI50 [6] was 0.96 µM, the TGI [6] was 1.76 µM and the GI50 [10] was 0.944 µM. The TGI [10] was 1.72 µM, the GI50 [7] was 0.919 µM and the TGI [7] was 2.03 µM.
